pEC50: −log10 of the molar value. Read-outs that look alike come from different tables or passages of the source.
How the values were obtained:
AT6.1 cells = assay: Normalized mitotic index (histone H3 phospho-Serine-28), AT6.1; format: cell-based; conditions: Rattus norvegicus, at 1 μM; normalized against vehicle-treated cells; read-out: Normalized mitotic index AT6.1
Excerpt: (§1) The mitotic index for each agent was normalized against those obtained from vehicle-treated cells, and compared with the activity of paclitaxel, a known inducer of mitotic arrest.

PC-3MLN4 cells = assay: Normalized mitotic index (histone H3 phospho-Serine-28), PC-3MLN4; format: cell-based; conditions: Homo sapiens, at 1 μM; normalized against vehicle-treated cells; read-out: Normalized mitotic index PC-3MLN4
Excerpt: as §1

PC-3M cells = assay: Normalized mitotic index (histone H3 phospho-Serine-28), PC-3M; format: cell-based; conditions: Homo sapiens, at 1 μM, normalized against vehicle-treated cells, read-out: Normalized mitotic index PC-3M
Excerpt: as §1

[1] = system: PC3MLN4 human prostate cancer cells; assay: Cyquant cell viability assay, PC3MLN4
Protocol: (§2) PC3M and PC3MLN4 cells were treated with vehicle, fenbendazole in DMSO, and fenbendazole in DMSO/NMP/TWEEN®-80/CrEL in varying doses for 72 hours. Cell viability assays using Cyquant reagent (Invitrogen, C7026) were performed as described in the literature. […] cells were seeded in 96 well plates overnight, before treated with either vehicle or benzimidazole solubilized in DMSO alone or in DMSO (12.5%)/NMP ([…])/TWEEN®-80 (25%)/Cr-EL (25%) for 72 hours. Cells were harvested by removing the media, washing once with phosphate buffered saline (PBS) and freezing at −80° C. for overnight. After thawing to room temperature, Cyquant reagent were prepared and added to the wells and the fluorescence intensity were measured with a spectrometer at 485 nm. Percent control was calculated by dividing the reading from drug-treated cells with the reading from vehicle-treated cells.
(§3) ED50 values were calculated from dose-effect analysis performed with Compusyn using data from the Cyquant cell viability assays.
(§4) ED50 values were calculated from dose-effect analysis performed with Compusyn using data from the Cyquant cell viability assays. All benzimidazoles drugs were solubilized in the combination carrier.

PC3MLN4 cells = assay: Annexin V/7-AAD apoptosis by flow cytometry, PC3MLN4
Protocol: (§5) Annexin V/7-amino-actinomycin D labeling was done according to the manufacturer's instructions (BD Pharmingen, 559763) and samples were analyzed by flow cytometry. Briefly, the cells were treated for 72 hours with either vehicle or 1 μM benzimidazole drugs, solubilized in the combination carrier. Cells were trypsinized and washed with PBS before resuspending in assay binding buffer. Annexin V and 7-amino-actinomycin labeling was performed at room temperature for 15 minutes before analysis by flow cytometry (BD FACScan). Cells positively stained for annexin V in the lower right quadrant and upper right quadrant indicate early and late apoptosis, respectively.
All benzimidazole drugs were solubilized in the combination carrier. After 72 hours, the cells were analyzed by annexin V/7-AAD staining. Cells positively stained for annexin V in the lower right quadrant and upper right quadrant indicate early and late apoptosis, respectively.

[2] = system: PC3M human prostate cancer cells; assay: Cyquant cell viability assay, PC3M; format: cell-based; conditions: Homo sapiens, PC-3M
Protocol: as §2, §3, §4

DU145 cells = assay: % apoptotic cells, DU145; format: cell-based, human; conditions: 1 μM
[3] = system: DU145 human prostate cancer cells; assay: Cyquant cell viability assay, DU145; format: cell-based; conditions: DU-145, 72 hours, read-out: ED50 DU145
Protocol: (§6) The cytotoxic effects of paclitaxel, fenbendazole, and albendazole were compared in paclitaxel-resistant PC3-TR and DU145-TR prostate cancer cells with their paclitaxel-sensitive counterparts, PC3 and DU145 cells. Cells were treated for 72 hours with vehicle, paclitaxel, fenbendazole or albendazole in various doses. Cell viability was measured using Cyquant assay, and percent control was calculated by dividing the fluorescent reading from drug-treated cells with those from vehicle-treated cells, indicating percentage of cell survival.

PC3M cells = assay: Annexin V/7-AAD apoptosis by flow cytometry, PC3M; format: cell-based, human; conditions: 1 μM, 72 hours, combination carrier
Protocol: All benzimidazole drugs were solubilized in the combination carrier. After 72 hours, the cells were analyzed by annexin V/7-AAD staining.
as §5

PC3 cells = assay: % apoptotic cells, PC3; format: cell-based, human; conditions: 1 μM
[4] = system: AT6.1 Dunning rat prostate carcinoma; assay: Survival in intravenous AT6.1 Dunning rat prostate carcinoma lung metastasis model; format: in vivo, nu/nu mice; conditions: for average survival time: FIG. 5 (carrier only 20.4 days); for percent increase in life span (ILS %): 100 mg/kg i.p. three times a week, over vehicle-treated mice
Protocol: Many anti-tumor drugs are tested only for their ability to prevent primary tumor growth or to prevent the dissemination of metastatic cells. To accomplish this, the drug is usually administered shortly after the primary tumor is established. […] The benzimidazoles described herein were evaluated in an experimental metastases model in the lungs of nude mice following tail-vein injection of Dunning rat AT6.1 prostate carcinoma. […] In order to achieve greater bioavailability, we first solubilized benzimidazoles in DNTC formulation and then diluted with saline prior to injection.
Inbred male nu/nu mice age 6-8 weeks were obtained from Massachusetts General Hospital (Boston, Mass.). The mice were virus antibody free, age and weight matched for experimental use and fed with a balanced rodent diet ad libitum. AT6.1 Dunning rat prostate cells were maintained as described above. 1×10^4 log-phase cells were injected via tail vein in 0.1 mL Hanks solution. Vehicle or drug treatment was started on day 5 post inoculation and given three times a week (Monday, Wednesday and Friday) via intraperitoneal injection in 0.5 mL volume. Benzimidazole drugs were prepared in the combination carrier [DMSO (12.5%), NMP (37.5%), TWEEN®-80 (25%) and CrEL (25%)] and diluted in saline. Vehicle control was prepared by diluting the combination carrier with saline.
During the course of treatment, the mice were monitored for toxicity by measuring body weight. […] Animals were euthanized with CO2 and tissues were collected for further analysis. The animals and experiments used in these studies were approved by the institutional animal care committee according to Children's Hospital Boston ARCH guidelines.
To distinguish differences in survival between these groups, the percent increase in life span (ILS %), defined as the percent increase in the mean time to death of drug-treated animals over the corresponding time to death for vehicle-treated mice, was calculated.

DU145-TR cells = assay: % apoptotic cells, DU145-TR; format: cell-based, human; conditions: 1 μM
[5] = system: paclitaxel-resistant DU145-TR prostate cancer cells; assay: Cyquant cell viability assay, DU145-TR; format: cell-based, human; conditions: Homo sapiens; 72 hours; paclitaxel-resistant; read-out: ED50 DU145-TR
Protocol: as §6

[6] = system: MES-SA human uterine sarcoma cells; assay: Cell viability, MES-SA; format: cell-based; conditions: read-out: ED50 MES-SA
Excerpt: (§7) Benzimidazoles retain their anti-tumor activity in these paclitaxel-resistant cells, with higher potency when compared to the parental cells (see Table 4). Cells resistant to microtubule-stabilizing drugs such as the taxanes are more susceptible to microtubule-disrupting agents. To confirm this, human uterine sarcoma MES-SA/Dx5 cells, which are cross-resistant to various chemotherapeutic agents, including the microtubule-disrupting agents vincristine and colchicine, were used.

[7] = system: paclitaxel-resistant PC3-TR prostate cancer cells; assay: Cyquant cell viability assay, PC3-TR; format: cell-based, human; conditions: Homo sapiens; 72 hours; paclitaxel-resistant; read-out: ED50 PC3-TR
Protocol: as §6

PC3-TR cells = assay: % apoptotic cells, PC3-TR; format: cell-based, human; conditions: 1 μM
[8] = system: multidrug resistant MES-SA/Dx5 human uterine sarcoma cells; assay: Cell viability, MES-SA/Dx5; format: cell-based; conditions: read-out: ED50 MES-SA/Dx5
Excerpt: as §7

[9] = Combination with paclitaxel, Cyquant cell growth inhibition, CompuSyn median-dose effect analysis; format: cell-based; conditions: Fa 0.50; alone or in combination; read-out: Dose MBZ
Protocol: Cell growth inhibition assays were performed using Cyquant reagent as described above. Drug interactions were quantitated by median-dose effect analysis and combination index values as well as dose reduction index were derived using CompuSyn software (ComboSyn, Inc.), as described previously in the literature. CI values of <1, =1, and >1 indicate synergism, additivity and antagonism between the drugs, respectively.
All benzimidazole drugs were prepared using the combination carrier and diluted with culture medium prior to treatment.

[10] = system: PC3 human prostate cancer cells; assay: Cyquant cell viability assay, PC3; format: cell-based; conditions: 72 hours, read-out: ED50 PC3
Protocol: as §6

[11] = system: AT6.1 Dunning rat prostate carcinoma; assay: Tumor burden by blood Gaussia luciferase assay in AT6.1 model; format: in vivo, nu/nu mice; conditions: 100 mg/kg
Excerpt: Similar to the survival model, treatment was not begun until day 5 when micrometastases were confirmed growing in the lung. For this approach, the AT6.1 cells were engineered to express secreted Gaussia luciferase enzyme. Using measurement of luciferase activity from the peripheral blood as an indicator of overall tumor burden, a significant reduction of tumor burden in the lungs of benzimidazole-treated animals when compared to vehicle-treated mice was observed. After 22 days, the mice were sacrificed and the lungs examined for viable tumor colonies.
Blood Gaussia luciferase assay was performed as described in the literature. Briefly, 10-20 μL peripheral blood was collected from the animals once a week via the retro-orbital vein. Secreted GAR luciferase activity was measured using a luminometer by adding 100 μL of 100 μM coelentrazine (Prolume, Nanolight, #303) to 5 μL blood and 2 μL of 20 mM EDTA. Relative luciferase reading from the blood collected represents the tumor burden in each animal. The reading was performed with blood collected at day 19 post inoculation when all mice were still alive.

tubulin = assay: In vitro tubulin polymerization assay; format: biochemical
Excerpt: Using an in vitro tubulin polymerization assay, it was confirmed that benzimidazoles disrupt microtubule polymerization.

[12] = combination carrier, Table 2, read-out: ED50 PC3M
[13] = 50 mg/kg i.p. three times a week from day 5

`c1ccc2[nH]c(-c3cscn3)nc2c1` [Thiabendazole, thiabendazole] gave a fold induction at 1 µM (AT6.1 cells) of 0.96, a fold induction at 1 µM (PC-3MLN4 cells) of 0.99 and a fold induction at 1 µM (PC-3M cells) of 0.98.

For `COC(=O)Nc1nc2cc(C(=O)c3ccc(F)cc3)ccc2[nH]1` [Flubendazole, flubendazole], the “cytotoxicity in highly metastatic cells relative to PC-3M” value [1] was “greater cytotoxicity”, the fold induction at 1 µM (AT6.1 cells) was greater than 1 and the “cytotoxic activity via apoptosis in highly metastatic prostate cancer cells” value (PC3MLN4 cells) was “induction of apoptosis”. For the same compound, the pEC50 [2, 12] was 5.84 and the fold induction at 1 µM (PC-3M cells) was greater than 1.

In the case of `COC(=O)NC(=S)Nc1ccccc1NC(=S)NC(=O)OC` [Thiophanate methyl, thiophanate-methyl], the fold induction at 1 µM (AT6.1 cells) was 0.96, the fold induction at 1 µM (PC-3MLN4 cells) was 0.95 and the fold induction at 1 µM (PC-3M cells) was 0.95.

For `COC(=O)Nc1nc2ccccc2[nH]1` [Carbendazim, carbendazim], the fold induction at 1 µM (AT6.1 cells) was 1.08, the fold induction at 1 µM (PC-3MLN4 cells) was 1 and the fold induction at 1 µM (PC-3M cells) was 0.91.

With `COC(=O)Nc1nc2ccc(C(=O)c3ccccc3)cc2[nH]1` [Mebendazole, mebendazole] the “% Apoptotic cells (72 hours) DU145” value (DU145 cells) was 16.4%, the pEC50 [3] was 5.23 and the “apoptotic cells in PC3M” value (PC3M cells) was 16.8%. The “apoptotic cells in PC3MLN4” value (PC3MLN4 cells; 1 μM, 72 hours, combination carrier) was 17.6%, the “% Apoptotic cells (72 hours) PC3” value (PC3 cells) was 11.9% and the average survival time [4, 13] was 29 days. The average survival time ([4]; 100 mg/kg i.p. three times a week from day 5) was 34.6 days, the “percent increase in life span (ILS %)” value [4] was 48.9% and the survival ([4]; 100 mg/kg, FIG. 6 (control 24.25 days)) was 36.13 days. For the same compound, the “% Apoptotic cells (72 hours) DU145-TR” value (DU145-TR cells) was 36.7%, the pEC50 [5] was 5.53 and the pEC50 [6] was 5.90. For the same compound, the pEC50 [7] was 6.12, the “% Apoptotic cells (72 hours) PC3-TR” value (PC3-TR cells) was 21.5% and the pEC50 [8] was 6.10. For the same compound, the pEC50 [9] was 4.76, the pEC50 [10] was 5.55 and the pEC50 [2, 12] was 5.92. The “reduction in tumor burden” value ([11]; blood collected at day 19, FIG. 8) was “most pronounced” and the “tumor burden compared to the control” value ([11]; until day 22, FIG. 9) was “significant reduction in tumor burden”.

In the case of `CCCOc1ccc2nc(NC(=O)OC)[nH]c2c1` [Oxibendazole, oxibendazole], the “cytotoxicity in highly metastatic cells relative to PC-3M” value [1] was “greater cytotoxicity”, the pEC50 ([1]; Homo sapiens, 72 h, read-out: ED50 PC3MLN4 DMSO) was 5.39 and the fold induction at 1 µM (AT6.1 cells) was greater than 1. For the same compound, the “cytotoxic activity via apoptosis in highly metastatic prostate cancer cells” value (PC3MLN4 cells) was “induction of apoptosis”, the average survival time [4, 13] was 27.4 days and the fold induction at 1 µM (PC-3MLN4 cells) was 1.8 to 2. For the same compound, the pEC50 ([2]; solubilized in DMSO alone, 72 hours, read-out: ED50 PC3M DMSO) was 5.05 and the fold induction at 1 µM (PC-3M cells) was greater than 1.

With `CCCCNC(=O)n1c(NC(=O)OC)nc2ccccc21` [Benomyl, benomyl] the fold induction at 1 µM (AT6.1 cells) was 1.08, the “percent increase in life span (ILS %)” value [4] was 7.5% and the fold induction at 1 µM (PC-3MLN4 cells) was 0.99. The tubulin disrupting effect (tubulin) was “strongest tubulin disrupting effect” and the fold induction at 1 µM (PC-3M cells) was 0.91.

Reference: US20120064008A1, “COMPOSITIONS FOR THE TREATMENT OF METASTATIC CANCER AND METHODS OF USE THEREOF” (priority 2009, published 2012)
